Data reported in patent publication US20130331412A9, “Pharmaceutical Compositions and Administrations Thereof” (VERTEX PHARMACEUTICALS INCORPORATED, priority 2010, published 2013).

How the values were obtained:
Assay in all cases: FRT cell Ussing chamber chloride transport assay
Assay type in all cases: cell-based
[1] = molecular target: T1, human CFTR mutant G970R (Homo sapiens, UniProt P13569, G970R); conditions: FRT cells expressing G970R CFTR
T1 construct: expressed in transfected cells; host or cells: Fisher rat thyroid (FRT) FlpIn cells, pcDNA5/FRT
Text: (§1) DNA cloning: Wild-type CFTR coding region was inserted into pcDNA5/FRT (Invitrogen, San Diego, Calif.) between EcoRV and ApaI.
(§2) Single CFTR gene mutations were introduced into the wild-type CFTR coding sequence by using QuickChange XL site-directed mutagenesis kit (Stratagene, Cambridge, UK). The CFTR coding region as well as its promoter sequence and 3′ untranslated sequence was fully sequenced to confirm the mutagenesis reaction.
(§3) The CFTR gene was stably expressed in Fisher rat thyroid (FRT) cells through FlpIn system. The FRT-FlpIn host cell line was generated by stably transfecting FRT cells with pFRT/lacZeo. The single integration of a FRT site was confirmed by Southern blot. After the mutant CFTR DNA was transfected into the FRT-FlpIn host cell line, the cells were incubate at 37° C. in Coon's modified Ham's F12 containing 10% FBS, 1% Pen/Strep, and 36 ml of Na− Bicarbonate for up to 8 passages under hygromycin selection (200 ug/ml).
(§4) All cells were grown on Costar® Snapwell™ cell culture inserts at maintained at 37° C. prior to recording. The cell culture inserts were mounted into an Ussing chamber (VCC MC8; Physiologic Instruments, Inc., San Diego, Calif.) to record ISC in the voltage-clamp mode (Vhold=0 mV). For FRT cells, the basolateral membrane was permeabilized with 360 μg/ml Nystatin and a basolateral to apical Cl− gradient was established. The basolateral bath solution contained (in mM); 135 NaCl, 1.2 CaCl2, 1.2 MgCl2, 2.4 K2HPO4, 0.6 KHPO4, 10 N-2-hydroxyethylpiperazine-N′-2-ethanesulfonic acid (HEPES), and 10 dextrose (titrated to pH 7.4 with NaOH). The apical NaCl was replaced by equimolar Na+ gluconate (titrated to pH 7.4 with NaOH). For HBE cells, the ISC was measured in the presence of a basolateral to apical Cl− gradient. The normal Cl− solution contained (in mM) 145 NaCl, 3.3 K2HPO4, 1.2 MgCl2, 1.2 CaCl2, 10 Glucose, 10 HEPES (pH adjusted to 7.35 with NaOH) and the low Cl− solution contained (in mM) 145 NaGluconate, 1.2 MgCl2, 1.2 CaCl2, 10 glucose, 10 HEPES (pH adjusted to 7.35 with NaOH). All recordings were digitally acquired using a Acquire and Analyze software (version 2; Physiologic Instruments, Inc. San Diego, Calif.).
(§5) The 10 μM forskolin stimulated response in FRT cell expressing different mutant CFTR forms or in HBE cells isolated from CF patients was normalized to the 10 μM forskolin-stimulated response in FRT cells expressing wild-type CFTR or in HBE isolated from non-CF individuals and expressed as % wild-type CFTR. In HBE, amiloride was added prior to forskolin application to block the epithelial Na+ channel.

[2] = molecular target: T2, human CFTR mutant L206W (Homo sapiens, UniProt P13569, L206W); conditions: FRT cells expressing L206W CFTR
T2 construct: expressed in transfected cells; host or cells: Fisher rat thyroid (FRT) FlpIn cells, pcDNA5/FRT
Text: as §1, §2, §3, §4, §5

[3] = molecular target: T3, human CFTR mutant P67L (Homo sapiens, UniProt P13569, P67L); conditions: FRT cells expressing P67L CFTR
T3 construct: expressed in transfected cells; host or cells: Fisher rat thyroid (FRT) FlpIn cells, pcDNA5/FRT
Text: as §1, §2, §3, §4, §5

[4] = molecular target: T4, human CFTR mutant R1070W (Homo sapiens, UniProt P13569, R1070W); conditions: FRT cells expressing R1070W CFTR
T4 construct: expressed in transfected cells; host or cells: Fisher rat thyroid (FRT) FlpIn cells, pcDNA5/FRT
Text: as §1, §2, §3, §4, §5

[5] = molecular target: T5, human CFTR mutant R117C (Homo sapiens, UniProt P13569, R117C); conditions: FRT cells expressing R117C CFTR
T5 construct: expressed in transfected cells; host or cells: Fisher rat thyroid (FRT) FlpIn cells, pcDNA5/FRT
Text: as §1, §2, §3, §4, §5

[6] = molecular target: T6, human CFTR mutant R347H (Homo sapiens, UniProt P13569, R347H); conditions: FRT cells expressing R347H CFTR
T6 construct: expressed in transfected cells; host or cells: Fisher rat thyroid (FRT) FlpIn cells, pcDNA5/FRT
Text: as §1, §2, §3, §4, §5

[7] = molecular target: T7, human CFTR mutant R352Q (Homo sapiens, UniProt P13569, R352Q); conditions: FRT cells expressing R352Q CFTR
T7 construct: expressed in transfected cells; host or cells: Fisher rat thyroid (FRT) FlpIn cells, pcDNA5/FRT
Text: as §1, §2, §3, §4, §5

[8] = molecular target: T8, human CFTR mutant S1235R (Homo sapiens, UniProt P13569, S1235R); conditions: FRT cells expressing S1235R CFTR
T8 construct: expressed in transfected cells; host or cells: Fisher rat thyroid (FRT) FlpIn cells, pcDNA5/FRT
Text: as §1, §2, §3, §4, §5

[9] = molecular target: T9, human CFTR mutant S1251N (Homo sapiens, UniProt P13569, S1251N); conditions: FRT cells expressing S1251N CFTR
T9 construct: expressed in transfected cells; host or cells: Fisher rat thyroid (FRT) FlpIn cells, pcDNA5/FRT
Text: as §1, §2, §3, §4, §5

[10] = molecular target: T10, human CFTR mutant S1255P (Homo sapiens, UniProt P13569, S1255P); conditions: FRT cells expressing S1255P CFTR
T10 construct: expressed in transfected cells; host or cells: Fisher rat thyroid (FRT) FlpIn cells, pcDNA5/FRT
Text: as §1, §2, §3, §4, §5

[11] = molecular target: T11, human CFTR mutant S549N (Homo sapiens, UniProt P13569, S549N); conditions: FRT cells expressing S549N CFTR
T11 construct: expressed in transfected cells; host or cells: Fisher rat thyroid (FRT) FlpIn cells, pcDNA5/FRT
Text: as §1, §2, §3, §4, §5

[12] = molecular target: T12, human CFTR mutant S549R (Homo sapiens, UniProt P13569, S549R); conditions: FRT cells expressing S549R CFTR
T12 construct: expressed in transfected cells; host or cells: Fisher rat thyroid (FRT) FlpIn cells, pcDNA5/FRT
Text: as §1, §2, §3, §4, §5

[13] = molecular target: T13, human CFTR mutant S945L (Homo sapiens, UniProt P13569, S945L); conditions: FRT cells expressing S945L CFTR
T13 construct: expressed in transfected cells; host or cells: Fisher rat thyroid (FRT) FlpIn cells, pcDNA5/FRT
Text: as §1, §2, §3, §4, §5

T4 sequence (P13569 whole entry R1070W): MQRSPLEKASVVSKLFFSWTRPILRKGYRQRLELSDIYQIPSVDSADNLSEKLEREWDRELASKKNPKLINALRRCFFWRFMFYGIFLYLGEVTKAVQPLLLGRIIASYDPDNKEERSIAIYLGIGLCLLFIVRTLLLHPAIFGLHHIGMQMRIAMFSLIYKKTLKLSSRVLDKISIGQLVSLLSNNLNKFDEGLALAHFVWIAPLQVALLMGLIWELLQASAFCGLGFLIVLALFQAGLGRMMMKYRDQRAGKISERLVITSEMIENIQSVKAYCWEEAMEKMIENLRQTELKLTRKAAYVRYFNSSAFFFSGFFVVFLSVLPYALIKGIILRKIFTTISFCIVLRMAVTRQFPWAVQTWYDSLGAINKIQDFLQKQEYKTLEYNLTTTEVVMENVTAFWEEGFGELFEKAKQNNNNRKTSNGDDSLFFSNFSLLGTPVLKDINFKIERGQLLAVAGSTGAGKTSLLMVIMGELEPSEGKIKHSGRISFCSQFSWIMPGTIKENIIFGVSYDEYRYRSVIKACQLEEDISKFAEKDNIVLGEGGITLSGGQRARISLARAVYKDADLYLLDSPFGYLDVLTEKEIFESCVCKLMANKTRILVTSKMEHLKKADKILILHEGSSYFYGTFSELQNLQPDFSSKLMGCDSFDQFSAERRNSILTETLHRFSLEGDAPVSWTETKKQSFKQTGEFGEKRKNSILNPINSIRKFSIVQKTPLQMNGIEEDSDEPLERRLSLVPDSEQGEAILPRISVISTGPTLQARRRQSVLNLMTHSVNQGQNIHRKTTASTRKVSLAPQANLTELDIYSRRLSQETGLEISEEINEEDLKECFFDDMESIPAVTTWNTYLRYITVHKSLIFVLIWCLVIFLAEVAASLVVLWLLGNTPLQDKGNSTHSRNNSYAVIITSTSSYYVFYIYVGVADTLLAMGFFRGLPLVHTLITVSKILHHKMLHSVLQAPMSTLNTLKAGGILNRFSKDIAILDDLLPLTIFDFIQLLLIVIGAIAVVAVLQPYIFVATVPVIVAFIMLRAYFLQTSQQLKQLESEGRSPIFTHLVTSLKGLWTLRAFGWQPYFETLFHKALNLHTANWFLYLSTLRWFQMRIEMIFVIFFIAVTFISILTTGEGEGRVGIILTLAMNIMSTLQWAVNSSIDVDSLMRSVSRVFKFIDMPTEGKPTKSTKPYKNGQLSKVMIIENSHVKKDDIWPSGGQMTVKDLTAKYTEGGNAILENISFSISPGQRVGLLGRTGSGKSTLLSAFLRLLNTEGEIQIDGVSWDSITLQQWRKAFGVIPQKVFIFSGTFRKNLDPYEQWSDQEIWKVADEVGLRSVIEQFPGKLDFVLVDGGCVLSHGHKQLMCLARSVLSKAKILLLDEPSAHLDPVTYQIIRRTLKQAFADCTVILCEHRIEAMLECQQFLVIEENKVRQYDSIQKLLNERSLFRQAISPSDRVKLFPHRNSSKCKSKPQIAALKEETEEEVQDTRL
T10 sequence (P13569 whole entry S1255P): as the sequence (P13569 whole entry R1070W) above, with W1070R, S1255P counted along it
T3 sequence (P13569 whole entry P67L): as the sequence (P13569 whole entry R1070W) above, with P67L, W1070R counted along it
T12 sequence (P13569 whole entry S549R): as the sequence (P13569 whole entry R1070W) above, with S549R, W1070R counted along it
T8 sequence (P13569 whole entry S1235R): as the sequence (P13569 whole entry R1070W) above, with W1070R, S1235R counted along it
T5 sequence (P13569 whole entry R117C): as the sequence (P13569 whole entry R1070W) above, with R117C, W1070R counted along it
T11 sequence (P13569 whole entry S549N): as the sequence (P13569 whole entry R1070W) above, with S549N, W1070R counted along it
T7 sequence (P13569 whole entry R352Q): as the sequence (P13569 whole entry R1070W) above, with R352Q, W1070R counted along it
T9 sequence (P13569 whole entry S1251N): as the sequence (P13569 whole entry R1070W) above, with W1070R, S1251N counted along it
T13 sequence (P13569 whole entry S945L): as the sequence (P13569 whole entry R1070W) above, with S945L, W1070R counted along it
T6 sequence (P13569 whole entry R347H): as the sequence (P13569 whole entry R1070W) above, with R347H, W1070R counted along it
T2 sequence (P13569 whole entry L206W): as the sequence (P13569 whole entry R1070W) above, with L206W, W1070R counted along it
T1 sequence (P13569 whole entry G970R): as the sequence (P13569 whole entry R1070W) above, with G970R, W1070R counted along it

increase in chloride transport, relative to baseline chloride transport [1]: greater than 10 fold | increase in chloride transport, relative to baseline chloride transport [2]: greater than or equal to 10% | increase in chloride transport, relative to baseline chloride transport [3]: greater than or equal to 10% | increase in chloride transport, relative to baseline chloride transport [4]: greater than or equal to 10% | increase in chloride transport, relative to baseline chloride transport [5]: greater than or equal to 10% | increase in chloride transport, relative to baseline chloride transport [6]: greater than or equal to 10% | increase in chloride transport, relative to baseline chloride transport [7]: greater than or equal to 10% | increase in chloride transport, relative to baseline chloride transport [8]: greater than or equal to 10% | increase in chloride transport, relative to baseline chloride transport [9]: greater than 10 fold | increase in chloride transport, relative to baseline chloride transport [10]: greater than 10 fold | increase in chloride transport, relative to baseline chloride transport [11]: greater than 10 fold | increase in chloride transport, relative to baseline chloride transport [12]: greater than 10 fold | increase in chloride transport, relative to baseline chloride transport [13]: greater than or equal to 10%
Compound: CC(C)(C)c1cc(C(C)(C)C)c(NC(=O)c2c[nH]c3ccccc3c2=O)cc1O [Compound 1, N-[2,4-bis(1,1-dimethylethyl)-5-hydroxyphenyl]-1,4-dihydro-4-oxoquinoline-3-carboxamide]
